Experimental findings from patent US11517617B2, “Methods and compositions for preventing influenza infection” (THE UNIVERSITY OF MELBOURNE, priority 2017, dated 2022) are described below.

Test [1] relates to CD8^+ T cells. It is filed as cell-based, human.
Test [2] concerns memory CD8^+ T cells within PBMCs. It is filed as cell-based, human.

No end group written: not given here.

Take “GILGFVFVL [M158-66, GILGFVFVL, reference compound]”: the “additional low avidity CD8^+ T cells detected by Q115E staining” value in test [1] is “could be detected”.
With “VADGGPNIY (Influenza B virus) [BPB1590-598, IBV variant of PB1591-599]”, in test [2], the “cross-reactivity of CD8^+ T cells after in vitro expansion with the peptide” value is “could not expand CD8^+ T cells” and the “recognition of IBV-derived variant by IAV-expanded CD8^+ T cells” value is given as “to a lesser extent”.
For the sequence “VSDGGPNLY (Influenza A virus) [PB1591-599]”, the “cross-reactivity of CD8^+ T cells after in vitro expansion with the peptide” value in test [2] is “recognizing both IAV- and IBV-derived peptides”.
